In patent publication US8143393B2, “Substituted 4-amino-pyrrolotriazine derivatives useful for treating hyper-proliferative disorders and diseases associated with angiogenesis” (Bayer HealthCare LLC, priority 2005, dated 2012) one finds IC50 data, which are given here for 20 molecules.

This test concerns the target T1, FGFR-1 (Homo sapiens, UniProt P11362).
T1 construct: GST; made in house
Put plainly: FGFR-1 TR-FRET biochemical assay. Put shortly: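 In this LANCE time-resolved FRET format, compounds at final 10 μM–0.128 nM (1% DMSO, 1:5 series) were preincubated before enzyme start. Reactions ran for one hour at room temperature with 0.6 uM ATP, 25 nM biotinylated poly GT and 5 nM GST-tagged FGFR1. Inhibition was calculated from the 665/615 nm ratio minus the ATP-free background.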
For orientation: TR-FRET usually uses a lanthanide donor and a delayed reading to cut background.

[1] abbreviates: 0.6 uM ATP, 5 nM FGFR1-GST, bounds given in nM.
[2] abbreviates: upper bound of the bin 'greater than 100 nM but less than 1 μM' (lower bound in E1).

T1 sequence (P11362 22-822): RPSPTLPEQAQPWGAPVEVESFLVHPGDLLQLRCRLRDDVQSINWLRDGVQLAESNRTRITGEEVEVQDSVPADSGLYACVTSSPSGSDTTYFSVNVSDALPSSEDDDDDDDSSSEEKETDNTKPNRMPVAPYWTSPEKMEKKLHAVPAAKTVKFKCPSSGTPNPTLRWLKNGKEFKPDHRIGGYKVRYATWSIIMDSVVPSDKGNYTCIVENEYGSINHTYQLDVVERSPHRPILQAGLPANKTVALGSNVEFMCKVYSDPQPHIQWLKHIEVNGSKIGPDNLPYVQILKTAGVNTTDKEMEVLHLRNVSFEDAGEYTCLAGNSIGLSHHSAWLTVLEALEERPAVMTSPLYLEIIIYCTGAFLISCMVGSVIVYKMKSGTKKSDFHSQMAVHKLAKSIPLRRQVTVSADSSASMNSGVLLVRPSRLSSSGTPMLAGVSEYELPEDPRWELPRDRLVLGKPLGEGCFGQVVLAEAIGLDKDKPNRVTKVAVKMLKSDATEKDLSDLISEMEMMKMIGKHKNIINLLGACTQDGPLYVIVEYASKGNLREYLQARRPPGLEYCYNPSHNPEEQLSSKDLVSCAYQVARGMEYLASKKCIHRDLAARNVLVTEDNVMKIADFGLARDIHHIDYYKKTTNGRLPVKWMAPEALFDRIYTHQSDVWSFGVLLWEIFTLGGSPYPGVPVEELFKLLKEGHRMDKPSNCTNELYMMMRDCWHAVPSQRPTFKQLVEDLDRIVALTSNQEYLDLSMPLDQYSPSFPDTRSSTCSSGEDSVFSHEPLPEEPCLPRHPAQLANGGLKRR

Molecule `Nc1ncnn2c(C3CCN(CC(O)CO)CC3)cc(-c3ccc(NC(=O)Nc4cc(C(F)(F)F)ccc4F)c(F)c3)c12` (stereo not shown) [Example 121, N-(4-4-amino-7-[1-(2,3-dihydroxypropyl)piperidin-4-yl]pyrrolo[2,1-f][1,2,4]triazin-5-yl-2-fluorophenyl)-N′-[2-fluoro-5-(trifluoromethyl)-phenyl]urea] registered a concentration for half-maximal inhibition (IC50) under setting [1] of under 10 nM.

For the molecule `Nc1ncnn2c(CN3CCOCC3)cc(-c3ccc(NC(=O)Nc4cc(F)cc(C(F)(F)F)c4)nc3)c12` [Example 22, N-{5-[4-amino-7-(morpholin-4-ylmethyl)pyrrolo[2,1-f][1,2,4]triazin-5-yl]pyridin-2-yl}-N′-[3-fluoro-5-(trifluoromethyl)phenyl]urea], under setting [1], the half-inhibitory concentration (IC50) is under 10 nM.

Molecule `Nc1ncnn2c(C(=O)C3CNCCO3)cc(-c3ccc(NC(=O)Nc4cc(C(F)(F)F)ccc4F)c(F)c3)c12` (stereo not shown) [Example 289, N-{4-[4-amino-7-(morpholin-2-ylcarbonyl)pyrrolo[2,1-f][1,2,4]triazin-5-yl]-2-fluorophenyl}-N′-[2-fluoro-5-(trifluoromethyl)phenyl]urea] came in with a half-maximal inhibitory concentration (IC50) under setting [1] of 10 to 100 nM.

`Nc1ncnn2c(CN3CCOCC3)cc(-c3ccc(NC(=O)Nc4cc(C(F)(F)F)ccn4)c(Cl)c3)c12` [Example 129, N-4-[4-amino-7-(morpholin-4-ylmethyl)pyrrolo[2,1-f][1,2,4]triazin-5-yl]-2-chlorophenyl-N′-[4-(trifluoromethyl)pyridin-2-yl]urea] showed an IC50 under setting [1] of under 10 nM.

For `CC(=O)c1cc(-c2ccc(NC(=O)Nc3cc(C(F)(F)F)ccc3F)cc2)c2c(N)ncnn12` [Example 100, N-[4-(7-acetyl-4-aminopyrrolo[2,1-f][1,2,4]triazin-5-yl)phenyl]-N′-[2-fluoro-5-(trifluoromethyl)phenyl]urea], the IC50 under setting [1] lay in the range of 10 to 100 nM.

As to `Nc1ncnn2c(CCCN3CCOCC3)cc(-c3ccc(NC(=O)Nc4cc(C(F)(F)F)ccc4F)cc3)c12` [Example 108, N-{4-[4-amino-7-(3-morpholin-4-ylpropyl)pyrrolo[2,1-f][1,2,4]triazin-5-yl]phenyl}-N′-[2-fluoro-5-(trifluoromethyl)phenyl]urea], the 50% inhibitory concentration (IC50) under setting [1] was under 10 nM.

In the case of `CCc1cccc(NC(=O)Nc2ccc(-c3cc(CN4CCOCC4)n4ncnc(N)c34)cc2)c1` [Example 50, N-{4-[4-amino-7-(morpholin-4-ylmethyl)pyrrolo[2,1-f][1,2,4]triazin-5-yl]phenyl}-N′-(3-ethylphenyl)urea], the half-maximal inhibitory concentration (IC50) under setting [1] was under 10 nM.

Regarding `COc1cc(-c2cc(CN3CCOCC3)n3ncnc(N)c23)ccc1NC(=O)Nc1cc(C(F)(F)F)ccn1` [Example 31, N-{4-[4-amino-7-(morpholin-4-ylmethyl)pyrrolo[2,1-f][1,2,4]triazin-5-yl]-2-methoxyphenyl}-N′-[4-(trifluoromethyl)pyridin-2-yl]urea], under setting [1], the 50% inhibitory concentration (IC50) is 10 to 100 nM.

For the molecule `Cc1ccc(F)c(NC(=O)Nc2cc(F)c(-c3cc(CN4CCOCC4)n4ncnc(N)c34)cc2F)c1` [Example 145, N-{4-[4-amino-7-(morpholin-4-ylmethyl)pyrrolo[2,1-f][1,2,4]triazin-5-yl]-2,5-difluorophenyl}-N′-(2-fluoro-5-methylphenyl)urea], the IC50 under setting [1] was in the range of 10 to 100 nM.

The molecule `Nc1ncnn2c(C(=O)COCCN3CCOCC3)cc(-c3ccc(NC(=O)Nc4cc(C(F)(F)F)ccc4F)c(F)c3)c12` [Example 260, N-(4-{4-amino-7-[(2-morpholin-4-ylethoxy)acetyl]pyrrolo[2,1-f][1,2,4]triazin-5-yl}-2-fluorophenyl)-N′-[2-fluoro-5-(trifluoromethyl)phenyl]urea] showed an IC50 under setting [1] of over 100 nM and an IC50 under setting [2] of under 1000 nM.

In the case of `Nc1ncnn2c(C3CCN(C(=O)CN4CCOCC4)CC3)cc(-c3ccc(NC(=O)Nc4cc(C(F)(F)F)ccc4F)c(Cl)c3)c12` [Example 231, N-(4-{4-amino-7-[1-(morpholin-4-ylacetyl)piperidin-4-yl]pyrrolo[2,1-f][1,2,4]triazin-3-yl}-2-chlorophenyl)-N′-[2-fluoro-5-(trifluoromethyl)phenyl]urea], the IC50 under setting [1] was 10 to 100 nM.

In turn, `Cc1cc(NC(=O)Nc2cc(C(F)(F)F)ccc2F)ccc1-c1cc(CN2CCOCC2)n2ncnc(N)c12` [Example 29, N-{4-[4-amino-7-(morpholin-4-ylmethyl)pyrrolo[2,1-f][1,2,4]triazin-5-yl]-3-methylphenyl}-N′-[2-fluoro-5-(trifluoromethyl)phenyl]urea] displayed a half-maximal inhibitory concentration (IC50) under setting [1] of under 10 nM.

`CC(=O)N1CCN(CCCc2cc(-c3ccc(NC(=O)Nc4cc(C(F)(F)F)ccc4F)c(F)c3)c3c(N)ncnn23)CC1` [Example 188, N-(4-{7-[3-(4-acetylpiperazin-1-yl)propyl]-4-aminopyrrolo[2,1-f][1,2,4]triazin-5-yl}-2-fluorophenyl)-N′-[2-fluoro-5-(trifluoromethyl)phenyl]urea] came in with an IC50 under setting [1] of under 10 nM.

In turn, `Nc1ncnn2c(C3CCN(C(=O)C4CC4)CC3)cc(-c3ccc(NC(=O)Nc4cc(C(F)(F)F)ccc4F)c(Cl)c3)c12` [Example 230, N-(4-{4-amino-7-[1-(cyclopropylcarbonyl)piperidin-4-yl]pyrrolo[2,1-f][1,2,4]triazin-5-yl}-2-chlorophenyl)-N′-[2-fluoro-5-(trifluoromethyl)phenyl]urea] came in with an IC50 under setting [1] of 10 to 100 nM.

Regarding `Nc1ncnn2c(CN3CCOCC3)cc(-c3ccc(NC(=O)Nc4cccc(C(F)(F)F)c4F)cc3)c12` [Example 58, N-{4-[4-amino-7-(morpholin-4-ylmethyl)pyrrolo[2,1-f][1,2,4]-triazin-5-yl]phenyl}-N′-[2-fluoro-3-(trifluoromethyl)phenyl]urea], the IC50 under setting [1] was in the range of 10 to 100 nM.

`Nc1ncnn2c(CN3CCCOCC3)cc(-c3ccc(NC(=O)Nc4cc(C(F)(F)F)ccn4)c(F)c3)c12` [Example 179, N-{4-[4-amino-7-(1,4-oxazepan-4-ylmethyl)pyrrolo[2,1-f][1,2,4]triazin-5-yl]-2-fluorophenyl}-N′-[4-(trifluoromethyl)pyridin-2-yl]urea] showed an IC50 under setting [1] of under 10 nM.

As for `CC(C)(C)OC(=O)N1CCC(c2cc(-c3ccc(NC(=O)Nc4cc(C(F)(F)F)ccc4F)c(F)c3)c3c(N)ncnn23)C1` (stereo not shown) [Example 198, tert-butyl 3-{4-amino-5-[3-fluoro-4-({[2-fluoro-5-(trifluoromethyl)phenyl]carbamoyl}amino)phenyl]pyrrolo[2,1-f][1,2,4]triazin-7-yl}pyrrolidine-1-carboxylate], the IC50 is over 100 nM under setting [1] and under 1000 nM under setting [2].

Molecule `Nc1ncnn2c(CC3CNCCO3)cc(-c3ccc(NC(=O)Nc4cccc(C(F)(F)F)c4)c(F)c3)c12` (stereo not shown) [Example 301, N-{4-[4-amino-7-(morpholin-2-ylmethyl)pyrrolo[2,1-f][1,2,4]triazin-5-yl]-2-fluorophenyl}-N′-[3-(trifluoromethyl)phenyl]urea] came in with an IC50 under setting [1] of 10 to 100 nM.

Regarding `Nc1ncnn2c(CN3CCOCC3)cc(-c3ccc(NC(=O)Nc4cc(C(F)(F)F)ccc4Cl)c(F)c3)c12` [Example 65, N-4-[4-amino-7-(morpholin-4-ylmethyl)pyrrolo[2,1-f][1,2,4]triazin-5-yl]-2-fluorophenyl-N′-[2-chloro-5-(trifluoromethyl)phenyl]urea], the IC50 under setting [1] was under 10 nM.

Turning to `Nc1ncnn2c(CN3CCOCC3)cc(-c3ccc(NC(=O)Nc4cccc(C(F)(F)F)c4)nc3)c12` [Example 20, N-{5-[4-amino-7-(morpholin-4-ylmethyl)pyrrolo[2,1-f][1,2,4]triazin-5-yl]pyridin-2-yl}-N′-[3-(trifluoromethyl)phenyl]urea], the IC50 under setting [1] was under 10 nM.

For orientation: IC50 means the concentration that gives 50% inhibition. Low values mean inhibition by little substance, high ones a need for much substance.
